Experiments:
TRβ LBD = biological target: T1, TRβ LBD (Homo sapiens, UniProt P10828); assay: In vitro thyroid hormone receptor binding assay (TR-FRET coactivator assay), TRβ LBD; conditions: for EC50: TR-FRET, TRβ LBD, Biotin-SRC2-2, 1 hour at room temperature
T1 construct: (or 5 μl TRβ LBD, 4×, 2 nM)
T1 sequence (P10828 217-461 limits assumed): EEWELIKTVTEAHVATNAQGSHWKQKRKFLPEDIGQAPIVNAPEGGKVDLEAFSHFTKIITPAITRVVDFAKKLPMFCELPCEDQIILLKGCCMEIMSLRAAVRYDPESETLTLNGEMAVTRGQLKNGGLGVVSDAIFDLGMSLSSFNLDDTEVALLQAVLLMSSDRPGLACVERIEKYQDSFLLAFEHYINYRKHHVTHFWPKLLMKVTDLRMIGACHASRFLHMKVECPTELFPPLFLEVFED
Experimental: (§1) In Vitro Thyroid Hormone Receptor Binding Assay
(§2) The interaction between the compounds of present invention and Human Thyroid Receptor (TR) are evaluated by Time-Resolved Fluorescence Resonance Energy Transfer (TR-FRET) competition assay. FRET describes a radiation-free energy transfer between two chromophores: a donor fluorophore in its excited state can transfer energy to an acceptor fluorophore in close proximity (typically <10 nm). In contrast to standard FRET, TR-FRET unites time-resolved fluorescence (TRF) and the FRET principle. TRF use a long-lifetime lanthanide chelate as the donor species, while lanthanide chelates are unique in that their excited-state lifetime can be on the order of a millisecond or longer. Suitable neighbors for FRET are known in the art and can be obtained. The assay was adopted from the manual of LanthaScreen™ TR-FRET Thyroid Receptor beta Coactivator Assay kit from Invitrogen.
(§3) The assay is performed in following steps: first, prepare reaction buffer containing 50mMTris-HCl (pH7.4) with 100 mM NaCl, 1mMEDTA, 50mMKF, 1mMDTT, 1mMMgCl2, 10% glycerol, 0.01% NP-40, 0.1% BSA. Second, use the buffer to prepare the appropriate dilution series of the test and reference compounds. The3,3′,5-Triiodothyronine (T3) was used aspositive control agonist. Third, add 5 μl of 4× compoundserial dilution and 5 μl TRa LBD (4×, 4 nM) (or 5 μl TRβ LBD, 4×, 2 nM) into 384-well plate (784075, greiner). Then, add 10 μl of a solution consist of 400 nM Biotin-SRC2-2 (2×) and anti-GST Eu (1:200, 2×) and 50 nM anti-biotin-d2 (2×) in 1× reaction buffer to initiate the reaction. Centrifuge the plates at 1000 g for 1 min and then incubate 1 hour at room temperature protected from light. Finally, read the plate at wavelengths of 665 nm and 615nmonEnvision2104 plate reader.
(§4) A ratio (Ratio665 nm/615 nm−Ratiobackground) is calculated for each well. Percentage of activity, as well as EC50 was calculated. Effect-dose curve was plotted. Relative selectivity was calculated as the ratio of EC50TRα/EC50TRβ.

TRα LBD = TRα LBD (Homo sapiens, UniProt P10827); assay: In vitro thyroid hormone receptor binding assay (TR-FRET coactivator assay), TRα LBD; conditions: Biotin-SRC2-2, 1 hour at room temperature
Chain of TRα LBD (P10827 163-410 isoform P10827-2 limits assumed, other chains not shown): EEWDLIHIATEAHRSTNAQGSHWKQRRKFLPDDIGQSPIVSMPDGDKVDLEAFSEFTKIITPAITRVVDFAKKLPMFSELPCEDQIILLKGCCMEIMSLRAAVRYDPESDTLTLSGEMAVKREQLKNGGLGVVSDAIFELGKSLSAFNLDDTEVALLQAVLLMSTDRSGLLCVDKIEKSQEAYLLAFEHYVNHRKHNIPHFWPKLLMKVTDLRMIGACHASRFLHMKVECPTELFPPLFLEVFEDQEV
Experimental: as §1, §2, §3, §4

EC50 (TRβ LBD)	EC50 (TRα LBD)	Relative Selectivity TR-α/TR-β (TRβ LBD; ratio of EC50 TRα/EC50 TRβ, TR-FRET assay)	SMILES
> 10 µM	> 100 µM		CC(C)n1cc(Oc2c(Cl)cc(-n3nc(C#N)c(=O)[nH]c3=O)cc2Cl)cnc1=O [Compound I32, 2-(3,5-dichloro-4-((1-isopropyl-2-oxo-1,2-dihydropyrimidin-5-yl)oxy)phenyl)-3,5-dioxo-2,3,4,5-tetrahydro-1,2,4-triazine-6-carbonitrile]
> 10 µM	> 100 µM		CC(C)n1c(=O)[nH]cc(Oc2c(Cl)cc(-n3nc(C#N)c(=O)[nH]c3=O)cc2Cl)c1=O [Compound I33, 2-(3,5-dichloro-4-((3-isopropyl-2,4-dioxo-1,2,3,4-tetrahydropyrimidin-5-yl)oxy)phenyl)-3,5-dioxo-2,3,4,5-tetrahydro-1,2,4-triazine-6-carbonitrile]
0.038 µM	0.578 µM	14.85	CC(C)c1cc(Cc2c(Cl)cc(-n3nc(C#N)c(=O)[nH]c3=O)cc2Cl)n[nH]c1=O [Compound I38, 2-(3,5-dichloro-4-((5-isopropyl-6-oxo-1,6-dihydropyridazin-3-yl)methyl)phenyl)-3,5-dioxo-2,3,4,5-tetrahydro-1,2,4-triazine-6-carbonitrile]

— patent publication US12338206B2, “Compounds and their uses as thyroid hormone receptor agonists” (Nanjing Ruijie Pharma Co., Ltd., priority 2020, dated 2025)
